This passage reports IC50 results from ChEMBL document CHEMBL1149740, “New phenolic glucosides from the leaves of Eurya tigang” (J Nat Prod, 1992).

In brackets after ≈: the same amount, converted by molar mass.

The test system of one test is T-24. Nature of the test: Antitumor activity against human T24 cells. The format is functional, cell-based.
Test [1] can be described thus: Antitumor activity against mouse keratinocytes. It is filed as cell-based. Particulars: Keratinocyte.

Take `O=C1C=CC(O)(CCO[C@@H]2O[C@H](COC(=O)/C=C/c3ccc(O)cc3)[C@@H](O)[C@H](O)[C@H]2O)C=C1` [EUTIGOSIDE B]: the IC50 (as a rule, the concentration at which inhibition is half-maximal) in the test on T-24 was found to be 31.9 µg/mL (≈ 69 µM); in test [1], 9.4 µg/mL (≈ 20.3 µM).
Taken in the same sequence, the figures for `O=C1C=CC(O)(CCO[C@@H]2O[C@H](COC(=O)/C=C/c3ccccc3)[C@@H](O)[C@H](O)[C@H]2O)C=C1` [EUTIGOSIDE C] were 29.3 µg/mL (≈ 65.6 µM) and 12.6 µg/mL (≈ 28.2 µM).
As to `O=C(/C=C/c1ccc(O)cc1)OC[C@H]1O[C@@H](OCCc2ccc(O)cc2)[C@H](O)[C@@H](O)[C@@H]1O` [EUTIGOSIDE A], the IC50 in the test on T-24 is 28.7 µg/mL (≈ 64.3 µM); in test [1] it was 9.2 µg/mL (≈ 20.6 µM).
